# Source: patent publication US20200276181A1, “THIENOISOQUINOLINES AND THEIR DERIVATIVES FOR TARGETING TUBULIN, CH-TOG, AURORA A KINASE, TPX2, CDK5RAP2 AND/OR ASPM” (VALORBEC, SEC, priority 2017, published 2020)
# Tested on: HCT 116 cells
# Experiment: Spindle phenotypes, paclitaxel and C75 combination
# Format: cell-based
# Settings: 7 hours, at 100 and 200 nM
# Procedure: FIG. 3A) is a line graph showing cytotoxicity of HeLa cells after treatment with varying concentrations of C75+/−a subthreshold dose of paclitaxel (Taxol™; 3 nM). The IC50 is shown by the dotted line. Bars show standard deviation. FIG. 3B) is a line graph showing the percentage of mitotic HeLa or HFF1 cells treated with a range of paclitaxel concentrations+/−C75 as indicated. The bars indicate standard deviation. FIG. 3C) is a series of bar graphs showing the proportion of HCT 116 cells with bipolar aligned (grey), bipolar misaligned (dark grey), multipolar/fragmented (light grey, top portion of each bar) or monopolar (black) spindles 7 hours after treatment with control (DMSO), varying concentrations of paclitaxel or C75, or both as indicated (n=691; N=3). The bars show standard deviation. The combination treatments were compared to paclitaxel and C75 on their own by calculating ratios varying from the predicted ratio, and found to synergize at 100 and 200 nM. FIG. 3D) is bar graph showing the average distance between centrosome fragments in HCT116 cells after treatments as shown. While centrosome fragments moved closer together with increased concentrations of paclitaxel, they moved further apart with increased concentrations of C75 (n=105; N=3). […]
compound,measurement,value
COc1ccc(S(=O)(=O)N2Cc3ccccc3-c3sc(Br)cc32)cc1 [Compound C75],"combination with paclitaxel vs each alone, spindle phenotypes",synergize
